Assay: Evaluation of solubility in solvent
Type: physicochemical
Settings: room temperature (25° C.), highest concentration completely dissolved; for Solubility Solvent-4: propylene carbonate; for Solubility Solvent-3: γ-butyrolactone

| SMILES | Solubility Solvent-4 [wt %] | Solubility Solvent-3 [wt %] |
| --- | --- | --- |
| Cc1ccc(C)c([S+](c2ccc3sc4ccccc4c(=O)c3c2)c2cc(C)c(Sc3ccc4sc5ccccc5c(=O)c4c3)cc2C)c1 (stereo not drawn) [Example 39, [2,5-dimethyl-4-(2-thioxanthonylthio)phenyl](2,5-dimethylphenyl) (2-thioxanthonyl)sulfonium Hexafluoroantimonate] | 23 | 29 |
| Cc1cc([S+](c2ccc3sc4ccccc4c(=O)c3c2)c2cc(C(C)(C)C)ccc2C)c(C(C)(C)C)cc1Sc1ccc2sc3ccccc3c(=O)c2c1 (stereo not drawn) [Example 47, [2-tert-butyl-5-methyl-4-(2-thioxanthonylthio)phenyl](5-tert-butyl-2-methylphenyl) (2-thioxanthonyl)sulfonium Hexafluoroantimonate] | 30 | 33 |
| CC(C)(C)c1cccc([S+](c2ccc3sc4ccccc4c(=O)c3c2)c2ccc(Sc3ccc4sc5ccccc5c(=O)c4c3)cc2C(C)(C)C)c1 (stereo not drawn) [Example 20, [2-tert-butyl-4-(2-thioxanthonylthio)phenyl](3-tert-butylphenyl) (2-thioxanthonyl)sulfonium Hexafluorophosphate] | 27 | 25 |
| Cc1ccc(C)c([S+](c2ccc3sc4ccccc4c(=O)c3c2)c2cc(C)c(S(=O)(=O)c3ccc4sc5ccccc5c(=O)c4c3)cc2C)c1 (stereo not drawn) [Example 51, [2,5-dimethyl-4-(2-thioxanthonylsulfonyl)phenyl](2,5-dimethylphenyl) (2-thioxanthonyl)sulfonium tris(pentafluoroethyl) Trifluorophosphate] | 32 | 40 |
| Cc1ccc(C)c([S+](c2ccc3sc4ccccc4c(=O)c3c2)c2cc(C)c([S+]([O-])c3ccc4sc5ccccc5c(=O)c4c3)cc2C)c1 (stereo not drawn) [Example 50, [2,5-dimethyl-4-(2-thioxanthonylsulfinyl)phenyl](2,5-dimethylphenyl) (2-thioxanthonyl)sulfonium tris(pentafluoroethyl) Trifluorophosphate] | 30 | 40 |
| CC(C)(C)c1cccc([S+](c2ccc3sc4ccccc4c(=O)c3c2)c2ccc(Sc3ccc4sc5ccccc5c(=O)c4c3)cc2C(C)(C)C)c1 (stereo not drawn) [Example 22, [2-tert-butyl-4-(2-thioxanthonylthio)phenyl](3-tert-butylphenyl) (2-thioxanthonyl)sulfonium tris(pentafluoroethyl) Trifluorophosphate] | 33 | 38 |
| O=c1c2ccccc2sc2ccc(Sc3ccc([S+](c4ccccc4)c4ccc5sc6ccccc6c(=O)c5c4)cc3)cc12 (stereo not drawn) [Comparative Example 4, reference compound] | 3 | 9 |
| Cc1cc([S+](c2ccc3sc4ccccc4c(=O)c3c2)c2cc(C(C)(C)C)ccc2C)c(C(C)(C)C)cc1Sc1ccc2sc3ccccc3c(=O)c2c1 (stereo not drawn) [Example 46, [2-tert-butyl-5-methyl-4-(2-thioxanthonylthio)phenyl](5-tert-butyl-2-methylphenyl) (2-thioxanthonyl)sulfonium tris(pentafluoroethyl) Trifluorophosphate] | 33 | 49 |
| Cc1ccc(C)c([S+](c2ccc3sc4ccccc4c(=O)c3c2)c2cc(C)c(Sc3ccc4sc5ccccc5c(=O)c4c3)cc2C)c1 (stereo not drawn) [Example 36, [2,5-dimethyl-4-(2-thioxanthonylthio)phenyl](2,5-dimethylphenyl) (2-thioxanthonyl)sulfonium Potassium Hexafluorophosphate] | 25 | 25 |
| Cc1cc(C)cc([S+](c2ccc3sc4ccccc4c(=O)c3c2)c2c(C)cc(Sc3ccc4sc5ccccc5c(=O)c4c3)cc2C)c1 (stereo not drawn) [Example 31, [2,6-dimethyl-4-(2-thioxanthonylthio)phenyl](3,5-dimethylphenyl) (2-thioxanthonyl)sulfonium Hexafluoroantimonate] | 23 | 25 |
| Cc1ccc(C)c([S+](c2ccc3sc4ccccc4c(=O)c3c2)c2cc(C)c(Sc3ccc4sc5ccccc5c(=O)c4c3)cc2C)c1 (stereo not drawn) [Example 38, [2,5-dimethyl-4-(2-thioxanthonylthio)phenyl](2,5-dimethylphenyl) (2-thioxanthonyl)sulfonium tris(pentafluoroethyl) Trifluorophosphate] | 33 | 40 |
| Cc1cccc([S+](c2ccc3sc4ccccc4c(=O)c3c2)c2ccc(Sc3ccc4sc5ccccc5c(=O)c4c3)cc2C)c1 (stereo not drawn) [Example 4, [2-methyl-4-(2-thioxanthonylthio)phenyl](3-methylphenyl) (2-thioxanthonyl)sulfonium Hexafluorophosphate] | 12 | 12 |
| Cc1cccc([S+](c2ccc3sc4ccccc4c(=O)c3c2)c2ccc(Sc3ccc4sc5ccccc5c(=O)c4c3)cc2C)c1 (stereo not drawn) [Example 7, [2-methyl-4-(2-thioxanthonylthio)phenyl](3-methylphenyl) (2-thioxanthonyl)sulfonium Hexafluoroantimonate] | 15 | 15 |
| Cc1cccc([S+](c2ccc3sc4ccccc4c(=O)c3c2)c2ccc(Sc3ccc4sc5ccccc5c(=O)c4c3)cc2C)c1 (stereo not drawn) [Example 6, [2-methyl-4-(2-thioxanthonylthio)phenyl](3-methylphenyl) (2-thioxanthonyl)sulfonium tris(pentafluoroethyl) Trifluorophosphate] | 32 | 23 |
| Cc1cc(C)cc([S+](c2ccc3sc4ccccc4c(=O)c3c2)c2c(C)cc(Sc3ccc4sc5ccccc5c(=O)c4c3)cc2C)c1 (stereo not drawn) [Example 28, [2,6-dimethyl-4-(2-thioxanthonylthio)phenyl](3,5-dimethylphenyl) (2-thioxanthonyl)sulfonium Hexafluorophosphate] | 25 | 30 |
| Cc1ccc(C)c([S+](c2ccc3sc4ccccc4c(=O)c3c2)c2cc(C)c(Oc3ccc4sc5ccccc5c(=O)c4c3)cc2C)c1 (stereo not drawn) [Example 49, [2,5-dimethyl-4-(2-thioxanthonyloxy)phenyl](2,5-dimethylphenyl) (2-thioxanthonyl)sulfonium tris(pentafluoroethyl) Trifluorophosphate] | 38 | 45 |
| COc1cccc([S+](c2ccc3sc4ccccc4c(=O)c3c2)c2ccc(Sc3ccc4sc5ccccc5c(=O)c4c3)cc2OC)c1 (stereo not drawn) [Example 12, [2-methoxy-4-(2-thioxanthonylthio)phenyl](3-methoxyphenyl) (2-thioxanthonyl)sulfonium Hexafluorophosphate] | 21 | 10 |
| Cc1cc([S+](c2ccc3sc4ccccc4c(=O)c3c2)c2cc(C(C)(C)C)ccc2C)c(C(C)(C)C)cc1Sc1ccc2sc3ccccc3c(=O)c2c1 (stereo not drawn) [Example 44, [2-tert-butyl-5-methyl-4-(2-thioxanthonylthio)phenyl](5-tert-butyl-2-methylphenyl) (2-thioxanthonyl)sulfonium Hexafluorophosphate] | 31 | 33 |
| COc1cccc([S+](c2ccc3sc4ccccc4c(=O)c3c2)c2ccc(Sc3ccc4sc5ccccc5c(=O)c4c3)cc2OC)c1 (stereo not drawn) [Example 14, [2-methoxy-4-(2-thioxanthonylthio)phenyl](3-methoxyphenyl) (2-thioxanthonyl)sulfonium tris(pentafluoroethyl) Trifluorophosphate] | 32 | 31 |
| O=c1c2ccccc2sc2ccc(Sc3ccc([S+](c4ccccc4)c4ccc5sc6ccccc6c(=O)c5c4)cc3)cc12 (stereo not drawn) [Comparative Example 2, reference compound] | 2 | 7 |
| COc1cccc([S+](c2ccc3sc4ccccc4c(=O)c3c2)c2ccc(Sc3ccc4sc5ccccc5c(=O)c4c3)cc2OC)c1 (stereo not drawn) [Example 15, [2-methoxy-4-(2-thioxanthonylthio)phenyl](3-methoxyphenyl) (2-thioxanthonyl)sulfonium Hexafluoroantimonate] | 20 | 18 |
| Cc1cc(C)cc([S+](c2ccc3sc4ccccc4c(=O)c3c2)c2c(C)cc(Sc3ccc4sc5ccccc5c(=O)c4c3)cc2C)c1 (stereo not drawn) [Example 30, [2,6-dimethyl-4-(2-thioxanthonylthio)phenyl](3,5-dimethylphenyl) (2-thioxanthonyl)sulfonium tris(pentafluoroethyl) Trifluorophosphate] | 33 | 40 |
| O=c1c2ccccc2sc2ccc(Sc3ccc([S+](c4ccccc4)c4ccc5sc6ccccc6c(=O)c5c4)cc3)cc12 (stereo not drawn) [Comparative Example 3, reference compound] | 32 | 23 |
| CC(C)(C)c1cccc([S+](c2ccc3sc4ccccc4c(=O)c3c2)c2ccc(Sc3ccc4sc5ccccc5c(=O)c4c3)cc2C(C)(C)C)c1 (stereo not drawn) [Example 23, [2-tert-butyl-4-(2-thioxanthonylthio)phenyl](3-tert-butylphenyl) (2-thioxanthonyl)sulfonium Hexafluoroantimonate] | 24 | 25 |

Reference: patent US12129240B2, “Sulfonium salt, photoacid generator, curable composition and resist composition” (SAN-APRO LTD., priority 2019, dated 2024)
